Test results: patent publication EP1063290A1, “NOVEL DICARBONYLREDUCTASE AND GENE ENCODING THE SAME” (TAISHO PHARMACEUTICAL CO., LTD, priority 1998, dated 1999)
Read-outs that look alike come from different tables or passages of the source.

Columns and labels:
protein hDCR1 = protein hDCR1 (Homo sapiens, UniProt Q7Z4W1); assay: Dicarbonyl reductase activity assay: substrate specificity (NAD(P)H oxidation at 340 nm); conditions: against a reference of 100 for diacetyl
Experimental: (§1) The enzyme activity assay method is not particularly restricted, and it may be based on the activity assay method for mouse carbonyl reductase (CR) (Eur. J. Biochem. 22, 381-387(1995)). The enzyme used here was an expressed recombinant enzyme. • (a) Substrate specificity: In order to determine the substrate specificity, there may be used a hydrocarbon system including various ketone, aldehyde and ester groups, or an aromatic compound.
(§2) The reaction mixture (total: 2.0 ml) comprised an 80 mM potassium phosphate solution (pH 7.0 or 6.0), 0.1 mM NADPH or NADH and a carbonyl substrate or enzyme (50 µl) (10.1 µg or 3.7 µg of hDCR1).
The oxidation rate for NAD(P)H was measured at 340 nm.
One unit of enzyme activity was defined as that which catalyzed oxidation of 1 µmol of NAD(P)H in one minute at 25°C.

protein DCR1 = protein DCR1 (Mus musculus, UniProt Q91X52); assay: Dicarbonyl reductase activity assay: substrate specificity and rate constants (NAD(P)H oxidation at 340 nm); conditions: for activity (as substrate): Example 5, result in words
Chain of protein DCR1 (Q91X52 whole entry): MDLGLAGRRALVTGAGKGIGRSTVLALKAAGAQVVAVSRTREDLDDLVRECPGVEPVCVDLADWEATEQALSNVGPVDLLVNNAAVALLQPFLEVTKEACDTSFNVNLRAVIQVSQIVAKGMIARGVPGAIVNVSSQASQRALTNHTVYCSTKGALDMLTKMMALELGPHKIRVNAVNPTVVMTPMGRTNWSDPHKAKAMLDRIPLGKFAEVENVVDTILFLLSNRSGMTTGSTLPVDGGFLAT
Experimental: as §1
as §2, with “• (1) This was assayed under the following conditions. The” for “The”, “glomerin B). The oxidation rate for NAD(P)H was measured at 340 nm.” for “hDCR1).”

[1] = substrate concentration 5,000 μM
[2] = substrate concentration 1,000 μM, against a reference of 100 for diacetyl
[3] = substrate concentration 5,000 μM, against a reference of 100 for diacetyl
[4] = substrate concentration 1,000 μM
[5] = substrate concentration 20 μM, against a reference of 100 for diacetyl
[6] = substrate concentration 2,000 μM
[7] = substrate concentration 500 μM, against a reference of 100 for diacetyl
[8] = substrate concentration 100 μM, against a reference of 100 for diacetyl

Chain of protein hDCR1 (Q7Z4W1 whole entry): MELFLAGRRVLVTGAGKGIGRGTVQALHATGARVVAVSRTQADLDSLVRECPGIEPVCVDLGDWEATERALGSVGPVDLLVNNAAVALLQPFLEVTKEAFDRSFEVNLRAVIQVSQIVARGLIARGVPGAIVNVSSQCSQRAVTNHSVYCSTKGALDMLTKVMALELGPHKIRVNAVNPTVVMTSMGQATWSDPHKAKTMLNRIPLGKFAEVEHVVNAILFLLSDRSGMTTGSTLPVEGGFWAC

O=CC(O)CO (racemic) [DL-Glyceraldehyde]
RA (%) relative activity (protein hDCR1; [1]): 25% | RA (%) relative activity (protein DCR1; [2]): 10.4% | RA (%) relative activity (protein DCR1; [3]): 40%

O=C1CCCCC1=O [1,2-Cyclohexanedione]
RA (%) relative activity (protein hDCR1; [4]): 27% | RA (%) relative activity (protein DCR1; [2]): 10.9%

O=C1C=Cc2ccccc2C1=O [1,2-Naphtoquinone]
RA (%) relative activity (protein DCR1; [5]): 47%

O=C1CCC(=O)CC1 [1,4-Cyclohexanedione]
RA (%) relative activity (protein DCR1; [2]): 0%

CCCCCCCCC=O [1-Nonanal]
RA (%) relative activity (protein DCR1; substrate concentration 50 μM, against a reference of 100 for diacetyl): 0.005%

O=C1c2ccccc2C(=O)C1c1ccccc1 [1-Phenyl-1,3-indanedione]
RA (%) relative activity (protein DCR1; substrate concentration 400 μM, against a reference of 100 for diacetyl): 0.6%

CCC=O [1-Propanal]
RA (%) relative activity (protein DCR1; [3]): 0.5%

CC(=O)CC(C)=O [2,4-Pentanedione]
RA (%) relative activity (protein hDCR1; [4]): 0% | RA (%) relative activity (protein DCR1; [2]): 0%

CC(=O)CCC(C)=O [2,5-Hexanedione]
RA (%) relative activity (protein DCR1; [2]): 0%

CCC(C)=O [2-Butanone]
RA (%) relative activity (protein DCR1): 0%

O=C1C=CCCC1 [2-Cyclohexen-1-one]
RA (%) relative activity (protein DCR1; [2]): 1.3%

O=C(O)C(=O)[C@@H](O)[C@H](O)[C@@H](O)CO [2-Ketogulonate]
RA (%) relative activity (protein DCR1; [2]): 0%

O=Cc1ccccc1[N+](=O)[O-] [2-Nitrobenzaldehyde]
RA (%) relative activity (protein hDCR1; [4]): 99% | RA (%) relative activity (protein DCR1; substrate concentration 1,500 μM, against a reference of 100 for diacetyl): 3.9%

OC1C=CCCC1 (stereo not drawn) [2-cyclohexen-1-ol]
activity (as substrate) (protein DCR1): no activity

O=CC(=O)C[C@H](O)[C@H](O)CO [3-Deoxyglucosone]
RA (%) relative activity (protein hDCR1; [6]): 5% | RA (%) relative activity (protein DCR1; substrate concentration 2,000 μM, against a reference of 100 for diacetyl): 0.4%

O=Cc1cccc([N+](=O)[O-])c1 [3-Nitrobenzaldehyde]
RA (%) relative activity (protein DCR1; substrate concentration 3,000 μM, against a reference of 100 for diacetyl): 3.3%

O=C(c1ccccc1)c1ccncc1 [4-Benzoylpyridine]
RA (%) relative activity (protein hDCR1; [4]): 39% | RA (%) relative activity (protein DCR1; [2]): 7%

CC(=O)c1ccc([N+](=O)[O-])cc1 [4-Nitroacetophenone]
RA (%) relative activity (protein hDCR1; [4]): 0% | activity (as substrate) (protein DCR1): no activity | RA (%) relative activity (protein DCR1; [2]): 0%

O=Cc1ccc([N+](=O)[O-])cc1 [4-Nitrobenzaldehyde]
RA (%) relative activity (protein hDCR1; [4]): 69% | RA (%) relative activity (protein DCR1; [2]): 3.3%

C[C@]12CCC(=O)C[C@@H]1CC[C@@H]1[C@@H]2CC[C@]2(C)C(=O)CC[C@@H]12 [5α-Androstane-3,17-dione]
RA (%) relative activity (protein hDCR1; substrate concentration 50 μM): 0% | RA (%) relative activity (protein DCR1): 0.0%

C[C@]12CCC(=O)C[C@@H]1CC[C@@H]1[C@@H]2CC[C@]2(C)[C@@H](O)CC[C@@H]12 [5α-DHT]
RA (%) relative activity (protein hDCR1; substrate concentration 50 μM): 0%

C[C@]12CCC(=O)C[C@H]1CC[C@@H]1[C@@H]2CC[C@]2(C)C(=O)CC[C@@H]12 [5β-Androstane-3,17-dione]
RA (%) relative activity (protein DCR1): 0.0%

CC(=O)[C@H]1CC[C@H]2[C@@H]3CC[C@@H]4CC(=O)CC[C@]4(C)[C@H]3CC[C@]12C [5β-Pregnane-3,20-dione]
RA (%) relative activity (protein DCR1; [5]): 0.0%

C[C@]12CCC(=O)C[C@H]1CC[C@@H]1[C@@H]2C(=O)C[C@@]2(C)[C@H]1CC[C@]2(O)C(=O)CO [5β-dihydrocortisone]
RA (%) relative activity (protein hDCR1; substrate concentration 20 μM): 0%

CC(=O)[C@@]1(O)CC[C@H]2[C@@H]3CCC4=CC(=O)CC[C@]4(C)[C@H]3CC[C@@]21C [17α-hydroxyprogesterone]
RA (%) relative activity (protein hDCR1; substrate concentration 50 μM): 0% | RA (%) relative activity (protein DCR1; [5]): 0.0%

CC=O [Acetaldehyde]
RA (%) relative activity (protein DCR1; [3]): 1.8%

CC(=O)c1ccc(S(=O)(=O)NC(=O)NC2CCCCC2)cc1 [Acetohexamide]
RA (%) relative activity (protein DCR1; [2]): 0%

CC(=O)C(C)O (stereo not drawn) [Acetoin]
RA (%) relative activity (protein hDCR1; [1]): 13% | RA (%) relative activity (protein DCR1; [3]): 7.4%

CC(=O)CO [Acetol]
RA (%) relative activity (protein DCR1; [2]): 0.8%

CC(=O)C=Cc1ccccc1 [Benzalacetone]
RA (%) relative activity (protein DCR1; [7]): 0%

O=C(C(=O)c1ccccc1)c1ccccc1 [Benzil]
RA (%) relative activity (protein DCR1; [8]): 0%

CC12CCC(C(=O)C1=O)C2(C)C (stereo not drawn) [Camphorquinone]
RA (%) relative activity (protein hDCR1; substrate concentration 500 μM): 23% | RA (%) relative activity (protein DCR1; [7]): 6%

C[C@]12C[C@H](O)[C@H]3[C@@H](CCC4=CC(=O)CC[C@@]43C)[C@@H]1CC[C@@H]2C(=O)C=O [Corticosterone-21-al]
RA (%) relative activity (protein DCR1; [5]): 0.0%

C[C@]12C[C@H](O)[C@H]3[C@@H](CCC4=CC(=O)CC[C@@]43C)[C@@H]1CC[C@@H]2C(=O)CO [Corticosterone]
RA (%) relative activity (protein hDCR1; substrate concentration 50 μM): 0%

C[C@]12CCC(=O)C=C1CC[C@@H]1[C@@H]2[C@@H](O)C[C@@]2(C)[C@H]1CC[C@]2(O)C(=O)C=O [Cortisol-21-al]
RA (%) relative activity (protein DCR1; [5]): 0.0%

O=C[C@H](O)[C@@H](O)[C@H](O)[C@H](O)CO [D-Glucose]
RA (%) relative activity (protein DCR1; substrate concentration 200,000 μM, against a reference of 100 for diacetyl): 0%

O=C[C@H](O)[C@@H](O)[C@H](O)[C@H](O)C(=O)O [D-Glucuronate]
RA (%) relative activity (protein DCR1; [2]): 0%

C[C@@H](O)C=O [D-Lactoaldehyde]
RA (%) relative activity (protein DCR1; [2]): 0.6%

COc1cccc2c1C(=O)c1c(O)c3c(c(O)c1C2=O)C[C@@](O)(C(C)=O)C[C@@H]3O[C@H]1C[C@H](N)[C@H](O)[C@H](C)O1 [Daunorubicin]
RA (%) relative activity (protein hDCR1; substrate concentration 500 μM): 0% | RA (%) relative activity (protein DCR1; [7]): 1.1%

O=C1O[C@H]([C@@H](O)CO)C(=O)C1=O [Dehydroascorbic acid]
RA (%) relative activity (protein DCR1; [7]): 0%

COC(=O)CCC(=O)C(=O)OC [Dimethyl-2-oxoglutarate]
RA (%) relative activity (protein hDCR1; [6]): 63%

CCOC(=O)CC(C)=O [Ethyl acetoacetate]
RA (%) relative activity (protein DCR1; [2]): 0%

O=CCO [Glycolaldehyde]
RA (%) relative activity (protein DCR1; [3]): 0.9%

O=CC=O [Glyoxal]
RA (%) relative activity (protein DCR1; [3]): 0%

CC1=CC(=O)c2ccccc2C1=O [Menadione (Vitamin K3), Menadione]
RA (%) relative activity (protein hDCR1; substrate concentration 100 μM): 0% | activity (as substrate) (protein DCR1): no activity | RA (%) relative activity (protein DCR1; [8]): 0.1%

COC(=O)CC(C)=O [Methyl acetoacetate]
RA (%) relative activity (protein DCR1; [2]): 0.2%

CC(=O)C=O [Methylglyoxal]
RA (%) relative activity (protein hDCR1; [1]): 20% | RA (%) relative activity (protein DCR1; [2]): 2.3% | RA (%) relative activity (protein DCR1; [3]): 7.9%

C=CCN1CC[C@]23c4c5ccc(O)c4O[C@H]2C(=O)CC[C@@]3(O)[C@H]1C5 [Naloxone]
RA (%) relative activity (protein DCR1; [2]): 0%

CCCCC[C@H](O)/C=C/[C@H]1[C@H](O)CC(=O)[C@@H]1C/C=C\CCCC(=O)O [PGE2]
RA (%) relative activity (protein DCR1; [2]): 0.0%

O=CC(=O)c1ccccc1 [Phenylglyoxal]
RA (%) relative activity (protein hDCR1; [4]): 35% | RA (%) relative activity (protein DCR1; [2]): 3.9%

O=C(O)C(=O)Cc1ccccc1 [Phenylpyruvic acid]
RA (%) relative activity (protein DCR1; [2]): 0.5%

CCC(=O)c1ccccc1 [Propiophenone]
RA (%) relative activity (protein DCR1; [2]): 0%

O=Cc1cccnc1 [Pyridine-3-aldehyde]
RA (%) relative activity (protein hDCR1; [4]): 27% | RA (%) relative activity (protein DCR1; [2]): 4%

O=Cc1ccncc1 [Pyridine-4-aldehyde]
RA (%) relative activity (protein hDCR1; [4]): 27% | RA (%) relative activity (protein DCR1; [3]): 13.7%

CCOC(=O)C(C)=O [Pyruvic acid ethyl ester]
RA (%) relative activity (protein hDCR1; [4]): 33% | RA (%) relative activity (protein DCR1; [2]): 35.2%

CC(=O)C(=O)O [Pyruvic acid]
RA (%) relative activity (protein DCR1; [3]): 0%

O[C@H]1CCc2ccccc21 [S-indan-1-ol]
activity (as substrate) (protein DCR1): no activity

C[C@]12CC[C@@H](O)C[C@H]1CC[C@@H]1[C@@H]2[C@@H](O)C[C@]2(C)[C@@H](C(=O)CO)CC[C@@H]12 [Tetrahydrocorticosterone]
RA (%) relative activity (protein DCR1): 0.0%

O=C(O)CCC(=O)C(=O)O [α-Ketoglutaric acid]
RA (%) relative activity (protein DCR1; [2]): 0%

Indolecarboaldehyde
RA (%) relative activity (protein DCR1; [2]): 0%

Phenyl-2-butanone
RA (%) relative activity (protein DCR1; [2]): 0.2%
